The values that follow come from US10160747B2, “Compounds and methods for kinase modulation, and indications therefor” (Plexxikon Inc., priority 2016, dated 2018).

The term GI50 denotes the concentration giving 50% growth inhibition.

The target in the assay is T1, BA/F3-FLT3-ITD + D835Y (Homo sapiens, UniProt P36888, D835Y, cells depend on it, form not given).
T1 sequence (P36888 with tags, fused parts or gaps INS600HVDFREYEYD/D835Y): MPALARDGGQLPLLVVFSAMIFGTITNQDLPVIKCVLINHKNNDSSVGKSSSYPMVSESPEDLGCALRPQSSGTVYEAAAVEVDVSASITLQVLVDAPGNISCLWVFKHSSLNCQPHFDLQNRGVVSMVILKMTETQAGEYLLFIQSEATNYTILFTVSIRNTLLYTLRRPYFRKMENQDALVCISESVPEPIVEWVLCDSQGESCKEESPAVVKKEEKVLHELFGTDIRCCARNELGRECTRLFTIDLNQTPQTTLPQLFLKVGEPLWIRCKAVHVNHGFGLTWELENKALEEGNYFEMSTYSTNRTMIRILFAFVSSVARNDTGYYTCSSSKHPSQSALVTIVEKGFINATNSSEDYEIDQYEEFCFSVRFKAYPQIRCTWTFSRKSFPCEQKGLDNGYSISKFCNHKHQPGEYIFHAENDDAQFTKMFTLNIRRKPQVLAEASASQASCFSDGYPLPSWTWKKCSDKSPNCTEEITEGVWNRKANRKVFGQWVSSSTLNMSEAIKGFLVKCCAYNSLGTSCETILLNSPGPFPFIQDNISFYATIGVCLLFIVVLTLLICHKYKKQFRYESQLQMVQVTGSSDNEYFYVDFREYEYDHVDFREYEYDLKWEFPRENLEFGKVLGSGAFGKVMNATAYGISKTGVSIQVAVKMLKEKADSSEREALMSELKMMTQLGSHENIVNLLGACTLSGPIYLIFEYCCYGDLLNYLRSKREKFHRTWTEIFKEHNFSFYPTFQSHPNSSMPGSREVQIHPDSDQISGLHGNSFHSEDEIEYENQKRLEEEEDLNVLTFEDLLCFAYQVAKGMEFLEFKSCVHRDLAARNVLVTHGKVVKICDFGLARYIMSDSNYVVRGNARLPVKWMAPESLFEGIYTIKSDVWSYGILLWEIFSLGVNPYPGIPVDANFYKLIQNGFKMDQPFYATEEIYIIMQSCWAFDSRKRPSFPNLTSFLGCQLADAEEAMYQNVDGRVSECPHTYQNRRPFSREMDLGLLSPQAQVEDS
The assay can be described thus: Engineered BA/F3 cell growth assay, FLT3 ITD/D835Y. Conditions: 3 d growth. Format: cell-based, murine. The procedure, abridged:
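IC50 derived from CellTiter-Glo ATP luminescence after 3 days at 37 °C, 5% CO2, over eight 1:3 dilutions from 1 μM (0.2% DMSO final). Cells: IL-3-independent murine Ba/F3 expressing full-length FLT3 ITD/D835Y, 1×10^4 per well.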

Regarding `Cc1ncc(NC(=O)Cc2ccc(-c3cnc4c(c3)C3(CC3)C(=O)N4)cc2F)cc1C(F)(F)F` [Compound P-0057, 2-[2-fluoro-4-(2-oxospiro[1H-pyrrolo[2,3-b]pyridine-3,1′-cyclopropane]-5-yl)phenyl]-N-[6-methyl-5-(trifluoromethyl)-3-pyridyl]acetamide], the GI50 fell in the range of 0.0001 to 10 µM.
With `CCC(=O)c1c[nH]c2ncc(-c3ccc(CC(=O)Nc4cncc(C(F)(F)F)c4)c(F)c3)cc12` [Compound P-0068, 2-[2-fluoro-4-(3-propanoyl-1H-pyrrolo[2,3-b]pyridin-5-yl)phenyl]-N-[5-(trifluoromethyl)-3-pyridyl]acetamide] the figure was 0.0001 to 10 µM; with `O=C(Cc1ccc(-c2cnc3[nH]cc(F)c3c2)cc1F)Nc1cc(Cl)c(C2CC2)cn1` [Compound P-0044, N-(4-chloro-5-cyclopropyl-2-pyridyl)-2-[2-fluoro-4-(3-fluoro-1H-pyrrolo[2,3-b]pyridin-5-yl)phenyl]acetamide], 0.0001 to 10 µM; with `Cc1ncc(NC(=O)Cc2ccc(-c3cnc4[nH]cc(Cl)c4n3)cc2)cc1C(F)(F)F` [Compound P-0079, 2-(4-(7-chloro-5H-pyrrolo[2,3-b]pyrazin-2-yl)phenyl)-N-(6-methyl-5-(trifluoromethyl)pyridin-3-yl)acetamide], 0.0001 to 10 µM.
Next, `O=C(Cc1ccc(-c2cnc3[nH]nc(C4CC4)c3c2)cc1)Nc1cncc(C(F)(F)F)c1` [Compound P-0073, 2-[4-(3-cyclopropyl-1H-pyrazolo[3,4-b]pyridin-5-yl)phenyl]-N-[5-(trifluoromethyl)-3-pyridyl]acetamide]: 0.0001 to 10 µM; `O=C(Cc1ccc(-c2cnc3[nH]cc(Cl)c3n2)cc1F)Nc1cnc(Cl)c(C(F)(F)F)c1` [Compound P-0060, 2-[4-(7-chloro-5H-pyrrolo[2,3-b]pyrazin-2-yl)-2-fluoro-phenyl]-N-[6-chloro-5-(trifluoromethyl)-3-pyridyl]acetamide]: 0.0001 to 10 µM.
Take `O=C(Cc1ccc(-c2cnc3[nH]cc(C(=O)C4CC4)c3c2)cc1F)Nc1ccnc(C(F)(F)F)c1` [Compound P-0032, 2-[4-[3-(cyclopropanecarbonyl)-1H-pyrrolo[2,3-b]pyridin-5-yl]-2-fluoro-phenyl]-N-[2-(trifluoromethyl)-4-pyridyl]acetamide]: the GI50 fell in the range of 0.0001 to 10 µM.
Next, `O=C(Cc1ccc(-c2cnc(Nc3cnn4ccccc34)nc2)c(F)c1)Nc1cncc(C(F)(F)F)c1` [Compound P-0071, 2-[3-fluoro-4-[2-(pyrazolo[1,5-a]pyridin-3-ylamino)pyrimidin-5-yl]phenyl]-N-[5-(trifluoromethyl)-3-pyridyl]acetamide]: 0.0001 to 10 µM.
With `O=C(Cc1ccc(-c2cnc(Nc3cnn4ccccc34)nc2)cc1F)Nc1cncc(C(F)(F)F)c1` [Compound P-0058, 2-[2-fluoro-4-[2-(pyrazolo[1,5-a]pyridin-3-ylamino)pyrimidin-5-yl]phenyl]-N-[5-(trifluoromethyl)-3-pyridyl]acetamide] the figure was 0.0001 to 10 µM; with `CC(=O)c1c[nH]c2ncc(-c3ccc(CC(=O)Nc4ccnc(C(F)(F)F)c4)c(F)c3)cc12` [Compound P-0031, 2-(4-(3-acetyl-1H-pyrrolo[2,3-b]pyridin-5-yl)-2-fluorophenyl)-N-(2-(trifluoromethyl)pyridin-4-yl)acetamide], 0.0001 to 10 µM; with `COc1ncc(NC(=O)Cc2ccc(-c3cnc4[nH]cc(Cl)c4n3)cc2F)cc1C(F)(F)F` [Compound P-0047, 2-[4-(7-chloro-5H-pyrrolo[2,3-b]pyrazin-2-yl)-2-fluoro-phenyl]-N-[6-methoxy-5-(trifluoromethyl)-3-pyridyl]acetamide], 0.0001 to 10 µM.
With `O=C(Cc1cc(F)c(-c2cnc(Nc3cnn4ccccc34)nc2)cc1F)Nc1cncc(C(F)(F)F)c1` [Compound P-0075, 2-[2,5-difluoro-4-[2-(pyrazolo[1,5-a]pyridin-3-ylamino)pyrimidin-5-yl]phenyl]-N-[5-(trifluoromethyl)-3-pyridyl]acetamide] the figure was 0.0001 to 10 µM; with `O=C(Cc1ccc(-c2cnc(Nc3cnn4ccccc34)nc2)cc1)Nc1cncc(C(F)(F)F)c1` [Compound P-0074, 2-[4-[2-(pyrazolo[1,5-a]pyridin-3-ylamino)pyrimidin-5-yl]phenyl]-N-[5-(trifluoromethyl)-3-pyridyl]acetamide], 0.0001 to 10 µM.
Take `CC(=O)c1c[nH]c2ncc(-c3ccc(CC(=O)Nc4cncc(C(F)(F)F)c4)c(F)c3)cc12` [Compound P-0055, 2-[4-(3-acetyl-1H-pyrrolo[2,3-b]pyridin-5-yl)-2-fluoro-phenyl]-N-[5-(trifluoromethyl)-3-pyridyl]acetamide]: the GI50 lay in the range of 0.0001 to 10 µM.
Next, `COc1ncc(NC(=O)Cc2cc(F)c(-c3cnc4[nH]cc(F)c4c3)cc2F)cc1C(F)(F)F` [Compound P-0051, 2-[2,5-difluoro-4-(3-fluoro-1H-pyrrolo[2,3-b]pyridin-5-yl)phenyl]-N-[6-methoxy-5-(trifluoromethyl)-3-pyridyl]acetamide]: 0.0001 to 10 µM.
With `COc1ncc(NC(=O)Cc2ccc(-c3cnc(Nc4cn[nH]c4)nc3)cc2)cc1C(F)(F)F` [Compound P-0025, N-[6-methoxy-5-(trifluoromethyl)-3-pyridyl]-2-[4-[2-(1H-pyrazol-4-ylamino)pyrimidin-5-yl]phenyl]acetamide] the figure was 0.0001 to 10 µM.
Next, `Cn1cc(Nc2ncc(-c3ccc(CC(=O)Nc4ccnc(C(F)(F)F)c4)c(F)c3)cn2)cn1` [Compound P-0083, 2-[2-fluoro-4-[2-[(1-methylpyrazol-4-yl)amino]pyrimidin-5-yl]phenyl]-N-[2-(trifluoromethyl)-4-pyridyl]acetamide]: 0.0001 to 10 µM.
On to `O=C(Cc1ccc(-c2cnc(Nc3cnn(C(F)F)c3)nc2)c(F)c1)Nc1cc(C(F)(F)F)ccn1` [Compound P-0024, 2-[4-[2-[[1-(difluoromethyl)pyrazol-4-yl]amino]pyrimidin-5-yl]-3-fluoro-phenyl]-N-[4-(trifluoromethyl)-2-pyridyl]acetamide], for which the GI50 was in the range of 0.0001 to 10 µM.
With `O=C(Cc1ccc(-c2cnc3c(c2)C2(CC2)C(=O)N3)cc1F)Nc1cncc(C(F)(F)F)c1` [Compound P-0064, 2-(2-fluoro-4-(2′-oxo-1′,2′-dihydrospiro[cyclopropane-1,3′-pyrrolo[2,3-b]pyridin]-5′-yl)phenyl)-N-(5-(trifluoromethyl)pyridin-3-yl)acetamide] the figure was 0.0001 to 10 µM.
With `COc1ncc(NC(=O)Cc2ccc(-c3cnc4[nH]cc(C(=O)C5CC5)c4c3)cc2F)cc1C(F)(F)F` [Compound P-0036, 2-[4-[3-(cyclopropanecarbonyl)-1H-pyrrolo[2,3-b]pyridin-5-yl]-2-fluoro-phenyl]-N-[6-methoxy-5-(trifluoromethyl)-3-pyridyl]acetamide], the GI50 fell in the range of 0.0001 to 10 µM.
Next, `Cn1cnc(Nc2ncc(-c3ccc(CC(=O)Nc4cc(C(C)(F)F)ccn4)cc3F)cn2)c1` [Compound P-0171, N-[4-(1,1-difluoroethyl)-2-pyridyl]-2-[3-fluoro-4-[2-[(1-methylimidazol-4-yl)amino]pyrimidin-5-yl]phenyl]acetamide]: 0.0001 to 10 µM; `COc1ncc(NC(=O)Cc2ccc(-c3cnc4[nH]c(Cl)cc4c3)cc2F)cc1C(F)(F)F` [Compound P-0038, 2-[4-(2-chloro-1H-pyrrolo[2,3-b]pyridin-5-yl)-2-fluoro-phenyl]-N-[6-methoxy-5-(trifluoromethyl)-3-pyridyl]acetamide]: 0.0001 to 10 µM; `Cc1ncc(NC(=O)Cc2ccc(-c3cnc4[nH]c(Cl)cc4c3)cc2F)cc1C(F)(F)F` [Compound P-0067, 2-[4-(2-chloro-1H-pyrrolo[2,3-b]pyridin-5-yl)-2-fluoro-phenyl]-N-[6-methyl-5-(trifluoromethyl)-3-pyridyl]acetamide]: 0.0001 to 10 µM.
With `Cc1ncc(NC(=O)Cc2ccc(-c3cnc4[nH]cc(Cl)c4n3)cc2F)cc1C(F)(F)F` [Compound P-0059, 2-[4-(7-chloro-5H-pyrrolo[2,3-b]pyrazin-2-yl)-2-fluoro-phenyl]-N-[6-methyl-5-(trifluoromethyl)-3-pyridyl]acetamide] the figure was 0.0001 to 10 µM; with `O=C(Cc1ccc(-c2cnc3[nH]c(Cl)cc3c2)cc1F)Nc1ccnc(C(F)(F)F)c1` [Compound P-0030, 2-[4-(2-chloro-1H-pyrrolo[2,3-b]pyridin-5-yl)-2-fluoro-phenyl]-N-[2-(trifluoromethyl)-4-pyridyl]acetamide], 0.0001 to 10 µM.
